Experimental data taken from US7713994B2 (Wyeth LLC, priority 2005, dated 2010).
pIC50: −log10 of the molar value. Like-named read-outs stand apart in the source and are kept apart here.

Assays:
MCF-7 = assay: Cytotoxicity assay (SRB), MCF-7; format: cell-based; conditions: Homo sapiens, MCF7, 72 h, read-out: In Vitro Cellular Activity IC50 MCF-7
Method in brief: (§1)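 Growth inhibition, SRB method: 3-day continuous compound exposure for HCT-116, LoVo and MCF-7 and 6-day exposure for BT474. Absorbance at 540 nm reflects surviving cell protein relative to controls.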

cyclin D1/cdk 4 enzyme = biological target: T1, cyclin D1/cdk 4 enzyme (Homo sapiens, UniProt P11802); assay: CDK4 ELISA kinase assay (phospho-Rb ser 795 detection); format: biochemical; conditions: 200 μM ATP
T1 construct: made in house; host or cells: Sf9 insect cells, recombinant baculovirus
T1 sequence (P11802 whole entry, species assumed): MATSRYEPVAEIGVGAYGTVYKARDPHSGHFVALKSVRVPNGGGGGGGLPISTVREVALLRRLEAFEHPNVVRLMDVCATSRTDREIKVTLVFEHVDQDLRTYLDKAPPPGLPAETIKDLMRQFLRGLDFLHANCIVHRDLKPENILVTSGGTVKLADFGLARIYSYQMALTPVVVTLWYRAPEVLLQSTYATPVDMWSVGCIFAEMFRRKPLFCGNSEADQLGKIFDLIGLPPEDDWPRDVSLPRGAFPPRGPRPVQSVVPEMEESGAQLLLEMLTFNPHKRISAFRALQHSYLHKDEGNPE
T1 sequence (P24385 whole entry partner, species assumed): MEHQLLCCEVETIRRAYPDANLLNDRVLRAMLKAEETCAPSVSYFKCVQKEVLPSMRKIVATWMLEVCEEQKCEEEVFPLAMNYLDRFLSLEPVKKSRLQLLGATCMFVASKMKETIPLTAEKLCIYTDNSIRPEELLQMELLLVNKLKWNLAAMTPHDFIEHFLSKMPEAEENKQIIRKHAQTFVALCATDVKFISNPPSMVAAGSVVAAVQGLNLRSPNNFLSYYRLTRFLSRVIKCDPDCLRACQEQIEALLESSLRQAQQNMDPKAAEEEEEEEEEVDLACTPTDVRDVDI
Method in brief: (§2)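 GST-Rb C-terminal fragment coated on wells; kinase reaction: 200 μM ATP, 0.5 mg/ml BSA, HEPES pH 7.5, 10 mM MgCl2, baculovirus/Sf9 cyclin-CDK, 30° C, 1 h. Readout anti-phospho-Rb Ser795, HRP, TMB, A450. Test compound 10 ug/ml final.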

cyclin E/CDK2 enzyme = biological target: T2, cyclin E/CDK2 enzyme (Homo sapiens, UniProt P24941); assay: CDK2 ELISA kinase assay (phospho-Rb ser 795 detection); format: biochemical; conditions: In Vitro Enzyme Assays, read-out: CDK2 IC50
T2 construct: made in house; host or cells: Sf9 insect cells, recombinant baculovirus
Method in brief: as §2

HCT-116 = assay: Cytotoxicity assay (SRB), HCT-116; format: cell-based; conditions: Homo sapiens, HCT-116, 72 h, read-out: In Vitro Cellular Activity IC50 HCT116
Method in brief: as §1

cyclin B/CDK1 enzyme = biological target: T3, cyclin B/CDK1 enzyme (Homo sapiens, UniProt P06493); assay: CDK1 ELISA kinase assay (phospho-Rb ser 795 detection); format: biochemical
T3 construct: purchased New England BioLabs; host or cells: Sf9 insect cells, recombinant baculovirus
T3 sequence (P06493 whole entry): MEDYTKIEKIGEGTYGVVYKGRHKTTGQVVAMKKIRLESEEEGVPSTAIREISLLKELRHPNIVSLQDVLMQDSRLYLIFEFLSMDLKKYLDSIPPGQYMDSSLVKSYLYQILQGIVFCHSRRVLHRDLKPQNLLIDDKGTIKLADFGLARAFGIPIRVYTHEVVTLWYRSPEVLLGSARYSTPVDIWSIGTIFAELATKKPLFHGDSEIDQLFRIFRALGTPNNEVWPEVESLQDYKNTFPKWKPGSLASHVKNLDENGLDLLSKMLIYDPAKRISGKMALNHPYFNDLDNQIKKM
T3 sequence (P14635 whole entry partner): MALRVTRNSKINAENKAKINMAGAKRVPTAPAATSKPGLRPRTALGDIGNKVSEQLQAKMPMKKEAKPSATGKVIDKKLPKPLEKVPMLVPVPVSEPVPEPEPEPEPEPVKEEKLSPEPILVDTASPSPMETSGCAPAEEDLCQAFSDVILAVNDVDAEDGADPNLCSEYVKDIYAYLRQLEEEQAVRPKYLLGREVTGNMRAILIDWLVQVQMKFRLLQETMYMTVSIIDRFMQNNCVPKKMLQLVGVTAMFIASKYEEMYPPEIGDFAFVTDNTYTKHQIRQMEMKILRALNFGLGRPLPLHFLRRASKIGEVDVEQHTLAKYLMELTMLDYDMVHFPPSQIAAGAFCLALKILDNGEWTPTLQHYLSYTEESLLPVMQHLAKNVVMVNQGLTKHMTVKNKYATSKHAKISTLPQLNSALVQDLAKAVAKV
Method in brief: as §2

BT474 = assay: Cytotoxicity assay (SRB), BT474; format: cell-based; conditions: Homo sapiens, BT-474, 144 h, read-out: In Vitro Cellular Activity IC50 BT474
Method in brief: as §1

LoVo = assay: Cytotoxicity assay (SRB), LoVo; format: cell-based; conditions: Homo sapiens, LoVo, 72 h, read-out: In Vitro Cellular Activity IC50 LOVO
Method in brief: as §1

[1] = In Vitro Enzyme Assays, read-out: CDK4 IC50
[2] = In Vitro Enzyme Assays, read-out: CDK1 IC50

Compound	pIC50 (cyclin D1/cdk 4 enzyme; [1])	pIC50 (cyclin E/CDK2 enzyme)	pIC50 (cyclin B/CDK1 enzyme; [2])	pIC50 (MCF-7; MCF-7 cells, SRB, three days)	pIC50 (HCT-116; HCT116 cells, SRB, three days)	pIC50 (BT474; BT474 cells, SRB, 6 days)	pIC50 (LoVo; LoVo cells, SRB, three days)	pIC50 (MCF-7)	pIC50 (HCT-116)	pIC50 (BT474)	pIC50 (LoVo)	pIC50 (cyclin D1/cdk 4 enzyme; CDK4 IC50, In Vitro Enzyme Assays)	pIC50 (cyclin B/CDK1 enzyme; CDK1 IC50, In Vitro Enzyme Assays)
O=C1NC(=O)c2ccc(Br)cc2/C1=C/NCCCN1CCCC1 [Example 309, (Z)-6-Bromo-4-((3-(pyrrolidin-1-yl)propylamino)methylene)isoquinoline-1,3(2H,4H)-dione]	4.83	< 4.30	< 4.30	4.70	4.59	4.59	4.82						
O=C1NC(=O)c2ccc(Br)cc2/C1=C/NCCCN1CCOCC1 [Example 310, (Z)-6-Bromo-4-((3-morpholinopropylamino)methylene)isoquinoline-1,3(2H,4H)-dione]	5.03	< 4.30	< 4.30	4.96	4.68	4.57	4.77						
C=CC(=O)Nc1ccc(CN/C=C2\C(=O)NC(=O)c3ccc(Br)cc32)cc1 [Example 322, N-[4-({[(Z)-(6-Bromo-1,3-dioxo-2,3-dihydroisoquinolin-4(1H)-ylidene)methyl]amino}methyl)phenyl]acrylamide]	< 4.30	5.11	< 4.30					6.62	6.60	6.96	6.62		
CC(C)[Si](Oc1cc(CN/C=C2\C(=O)NC(=O)c3ccc(I)cc32)ccc1N)(C(C)C)C(C)C [Example 323, (4Z)-4-[({4-Amino-3-[(triisopropylsilyl)oxy]benzyl}amino)methylene]-6-iodoisoquinoline-1,3(2H,4H)-dione]		4.37		5.00	4.66	4.74	< 4.30					5.72	< 4.30
O=C(/C=C\Cl)Nc1ccc(CN/C=C2\C(=O)NC(=O)c3ccc(I)cc32)cc1O [Example 337, (2Z)-3-Chloro-N-[2-hydroxy-4-({[(Z)-(6-iodo-1,3-dioxo-2,3-dihydroisoquinolin-4(1H)-ylidene)methyl]amino}methyl)phenyl]acrylamide]	7.70	6.00	5.51	5.96	6.17	6.14	6.04						
C=C(CN(C)C)C(=O)Nc1ccc(CN/C=C2\C(=O)NC(=O)c3ccc(I)cc32)cc1O [Example 338, 2-[(Dimethylamino)methyl]-N-[2-hydroxy-4-({[(Z)-(6-iodo-1,3-dioxo-2,3-dihydroisoquinolin-4(1H)-ylidene)methyl]amino}methyl)phenyl]acrylamide]	7.00	5.55	4.86	6.03	6.02	5.70	6.06						
CC#CC(=O)Nc1ccc(CN/C=C2\C(=O)NC(=O)c3ccc(I)cc32)cc1O [Example 339, N-[2-Hydroxy-4-({[(Z)-(6-iodo-1,3-dioxo-2,3-dihydroisoquinolin-4(1H)-ylidene)methyl]amino}methyl)phenyl]but-2-ynamide]	7.15	6.43	6.09	4.80	5.00	5.29	4.92						

Now from value to compound, other results behind:

pIC50 (cyclin D1/cdk 4 enzyme; [1])	pIC50 (cyclin E/CDK2 enzyme)	pIC50 (cyclin B/CDK1 enzyme; [2])	Compound	pIC50 (MCF-7; MCF-7 cells, SRB, three days)	pIC50 (HCT-116; HCT116 cells, SRB, three days)	pIC50 (BT474; BT474 cells, SRB, 6 days)	pIC50 (LoVo; LoVo cells, SRB, three days)	pIC50 (MCF-7)	pIC50 (HCT-116)	pIC50 (BT474)	pIC50 (LoVo)	pIC50 (cyclin D1/cdk 4 enzyme; CDK4 IC50, In Vitro Enzyme Assays)	pIC50 (cyclin B/CDK1 enzyme; CDK1 IC50, In Vitro Enzyme Assays)
5.07	< 4.30	< 4.30	O=C1NC(=O)c2ccc(Br)cc2/C1=C/NCCCN1CCCC1=O [Example 311, (Z)-6-Bromo-4-((3-(2-oxopyrrolidin-1-yl)propylamino)methylene)isoquinoline-1,3(2H,4H)-dione]	4.89	4.54	4.42	4.72						
6.92	5.40	5.17	O=C1NC(=O)c2ccc(Br)cc2/C1=C/NCc1ccc(NC(=O)C(Cl)Cl)c(O)c1 [Example 320, N-[4-({[(Z)-(6-Bromo-1,3-dioxo-2,3-dihydroisoquinolin-4(1H)-ylidene)methyl]amino}methyl)-2-hydroxyphenyl]-2,2-dichloroacetamide]	5.31	5.68	5.70	5.35						
< 4.30	5.44	< 4.30	CCC(=O)Nc1ccc(CN/C=C2\C(=O)NC(=O)c3ccc(Br)cc32)cc1 [Example 321]	5.00	5.92	6.08	5.36						
7.15	5.11	< 4.30	O=C1NC(=O)c2ccc(I)cc2/C1=C/NCc1ccc(NC(=O)c2ccccc2)c(O)c1 [Example 334, N-[2-Hydroxy-4-({[(Z)-(6-iodo-1,3-dioxo-2,3-dihydroisoquinolin-4(1H)-ylidene)methyl]amino}methyl)phenyl]benzamide]	5.10	5.15	5.14	5.23						
7.70	5.85	< 4.30	CC(C)C(=O)Nc1ccc(CN/C=C2\C(=O)NC(=O)c3ccc(I)cc32)cc1O [Example 335, N-[2-Hydroxy-4-({[(Z)-(6-iodo-1,3-dioxo-2,3-dihydroisoquinolin-4(1H)-ylidene)methyl]amino}methyl)phenyl]-2-methylpropanamide]	5.23	5.30	5.29	5.35						
7.40	5.24	< 4.30	C/C=C(\C)C(=O)Nc1ccc(CN/C=C2\C(=O)NC(=O)c3ccc(I)cc32)cc1O [Example 336, (2E)-N-[2-Hydroxy-4-({[(Z)-(6-iodo-1,3-dioxo-2,3-dihydroisoquinolin-4(1H)-ylidene)methyl]amino}methyl)phenyl]-2-methylbut-2-enamide]	5.21	4.92	4.72	4.85						
7.15	5.80	5.21	C#CC(=O)Nc1ccc(CN/C=C2\C(=O)NC(=O)c3ccc(I)cc32)cc1O [Example 340, N-[2-Hydroxy-4-({[(Z)-(6-iodo-1,3-dioxo-2,3-dihydroisoquinolin-4(1H)-ylidene)methyl]amino}methyl)phenyl]prop-2-ynamide]	5.85	5.92	5.85	5.85						
7.70	6.23	5.51	CCC(=O)Nc1ccc(CN/C=C2\C(=O)NC(=O)c3ccc(I)cc32)cc1O [Example 341, N-[2-Hydroxy-4-({[(Z)-(6-iodo-1,3-dioxo-2,3-dihydroisoquinolin-4(1H)-ylidene)methyl]amino}methyl)phenyl]propanamide]	5.60	6.00	6.03	6.02						
8.00	6.07	5.54	C=CC(=O)Nc1ccc(CN/C=C2\C(=O)NC(=O)c3ccc(I)cc32)cc1O [Example 342, N-[2-Hydroxy-4-({[(Z)-(6-iodo-1,3-dioxo-2,3-dihydroisoquinolin-4(1H)-ylidene)methyl]amino}methyl)phenyl]acrylamide]	6.82	6.92	7.15	7.05						
